The values that follow come from patent publication US20220079966A1, “HYALURONAN SYNTHESIS INHIBITION FOR TREATING AUTOIMMUNE, INFLAMMATORY, FIBROTIC, OR PROLIFERATIVE DISEASES OR DISORDERS” (The Board of Trustees of the Leland Stanford Junior …, priority 2018, published 2022).

For orientation: half-life means the time in which the quantity being followed falls by half.

One data set relates to CHO-HAS3 cells. The data set is described as follows: HA production by CHO-HAS3 cells engineered to overexpress HAS3. It is filed as cell-based. The note with it: 48 hours; non-hydrolyzable 4-MUG at comparable doses to 4-MU or conventional 4-MUG. As for the experimental part: Samples were thawed and assayed for HA levels using a modified HA ELISA as previously described (Nagy N., et al., J. Clin. Invest. 2015; 125(10):3928-3940). Each sample was analyzed in triplicate with a mean value obtained per sample. For cell normalization, LI-COR CellTag™ 700 Stain was used according to the manufactures protocol.
To test whether 4-MUG has bioactivity independently of any possible conversion to 4-MU, a non-hydrolyzable version of 4-MUG was generated (FIG. 5A).

For the next data set, the system named is human cell lines. Kind of data set: HA synthesis by human cell lines (unpublished data). Particulars: compared with parent drug 4-MU. It is filed as cell-based.
The next data set deals with DORmO mice. The data set is described as follows: DORmO mouse model of type 1 diabetes. The format is in vivo. The note with it: for HA accumulation in DORmO pancreatic islets (HA staining): 12 weeks of age, compared to untreated DORmO mice; for onset / progression of T1D as measured by blood glucose over time: fed from 5 weeks of age for 15 weeks. The source says: 10×RIPmOVA (DORmO) mouse. DORmO mice carry a T-cell receptor transgene specific for OVA (emulating autoreactive CD4+ T-cells), while simultaneously expressing OVA in conjunction with the insulin gene promoter on pancreatic beta cells (emulating the autoantigen). All animals were bred and maintained under specific pathogen-free conditions, with free access to food and water, in the animal facilities at Stanford University Medical School (Stanford, Calif.). B6 db/db LeptR-/- mice were purchased from Jackson Laboratories (JAX) as well as DO11.10 transgenic mice. The DO11.10 mice were bred with Balb/c mice expressing RIPmOva (ovalbumin peptide amino acids 323-339; available at the Benaroya Research Institute) to generate the DORmO double-transgenic mice. In addition, C57Bl/6J mice were bred in-house at Stanford University School of Medicine. Beginning at four weeks of age, mice were weighed weekly as well as bled via the tail vein for the determination of their blood glucose level using a Contour® blood glucose meter and blood glucose monitoring strips (Bayer Healthcare). When two consecutive blood glucose readings of 250 mg/dL were recorded, animals were considered diabetic. When two consecutive blood glucose readings of 300 mg/dL were recorded, animals were euthanized. The 4-MU (Alfa Aesar) was pressed into mouse chow (TestDiet, St. Louis, Mo.) and irradiated before shipment, as previously described (Nagy N., et al., Circulation. 2010; 122(22):2313-2322). This chow formulation delivers 250 mg/mouse/day, yielding a serum drug concentration of 640.3±17.2 nmol/L in mice, as measured by HPLC-MS. 4-MUG ([…], Wood Dale, Ill.) was distributed in the drinking water at a concentration of 2 mg/ml, delivering 10 mg/mouse/day, yielding a serum drug concentration of 357.1±72.6 ng/mL in mice, as measured by LC-MS/MS. Mice were initiated on 4-MU and 4-MUG at five, eight or twelve weeks of age, unless otherwise noted, and were maintained on this diet until they were euthanized, unless otherwise noted. For analysis of Foxp3+ regulatory T-cell numbers in naïve mice, mice were treated daily with 0.5 mg of 4-MU or 1.0 mg 4-MUG in 200 μl 0.08% carboxymethylcellulose in saline by intra-peritoneal injection. Tissues for histochemistry were extracted from the animals and immediately transferred into 10% neutral buffered formalin (NBF). The tissue was processed to paraffin on a Leica ASP300 Tissue Processor (Leica Microsystems Inc.). Then 5 μm thick sections were cut on a Leica RM 2255 Microtomes (Leica Microsystems Inc.). All staining steps were performed on a Leica Bond-MaxTM automated immune histochemistry (IHC) stainer (Leica Microsystems Inc.). For HA affinity histochemistry (AFC) the BondTM Intense R Detection kit, a streptavidin-HRP system, (Leica Microsystems, Inc.) was used with 4 μg/mL biotinylated-HABP in 0.1% BSA-PBS as the primary. The BondTM Polymer Detection Kit was used for all other immunohistochemistry. This detection kit contains a goat anti-rabbit conjugated to polymeric HRP and a rabbit anti-mouse post primary reagent for use with mouse primaries. For Foxp3 and insulin (anti-insulin, ab7842 abcam) sections were incubated 60 min with 8 μg/mL rat anti-Foxp3 clone FJK-16s (eBioscience). Incubation with rabbit anti rat IgG (Vector Labs), post-primary was added in lieu of the post-primary reagent from the kit.

In the next data set the test system is blood leukocytes. The data set is described as follows: Leukocyte 4-MU uptake in mice on oral 4-MU (flow cytometry, Pacific Blue channel). It is filed as in vivo, C57Bl/6J mice. The note with it: blood leukocyte subsets, days 0, 2, 7, 14. The source says:
Next, the uptake of 4-MU by different leukocyte subsets was examined. To this end, mice were fed 4-MU and 4-MU signal was examined on blood leukocytes from representative animals at intervals of 0, 2, 7, and 14 days after the initiation of 4-MU treatment. […] Bold histograms depict signal in 4-MU treated mice, shaded histograms depict background Pacific Blue signal in untreated mice. Cell surface markers were stained to examine 4-MU uptake by multiple cell types, including CD4+ T-cells (CD3+CD4+), CD8+ T-cells (CD3+CD8+), B-cells (I-A/I-E+B220+) dendritic cells (DC; I-A/I-E+CD11c+), macrophages (Mc); I-A/I-E+CD11c−), neutrophils (Ly6G/C+CD14+) and monocytes (Ly6G/C-CD14+).
C57Bl/6J mice were treated with 4-MU and leukocytes from representative animals were isolated from the blood at baseline (before 4-MU treatment) and at intervals of 2, 7, and 14 days after the initiation of chow. […] To detect fluorescence emitted by 4-MU using flow cytometry on specific leukocyte subsets, peripheral blood red cells were lysed using Ammonium-Chloride-Potassium (ACK) buffer, and leukocytes were stained with the following fluorochrome-conjugated antibodies: BV650-CD3 (17-A2), BV785-CD4 (RM4-5), APC-CD11c (N418), PE-CD14 (Sa2-8), PE-Cy7-Ly-6G/C (RB6-8C5), PE-CyS. […] Samples were run on a BD™ LSRII flow cytometer (Beckon Dickinson) and data was analyzed using FlowJo software (TreeStar).
In general terms: A flow cytometer gives signals particle by particle.

For data set [1] the following is noted: cited from earlier work.

Some results are limits rather than exact numbers.

On to `Cc1cc(=O)oc2cc(O[C@@H]3O[C@H](C(=O)O)[C@@H](O)[C@H](O)[C@H]3O)ccc12` [4-MUG, 4-methylumbelliferone-glucuronide], for which the “HA production by CHO-HAS3 cells” value in the data set with CHO-HAS3 cells is listed as “directly inhibits HA synthesis”. For the same compound, the “inhibition of HA synthesis by human cell lines” value with human cell lines is “just as well as the parent drug”. In the data set with DORmO mice, the “HA accumulation in DORmO pancreatic islets (HA staining)” value was “decrease of HA accumulation” and the “onset / progression of T1D as measured by blood glucose over time” value is recorded as “delayed the onset of T1D”.
For `Cc1cc(=O)oc2cc(O)ccc12` [4-MU, 4-methylumbelliferone], in the data set with blood leukocytes, the “time period of oral treatment required for leukocyte populations to take up 4-MU” value is 1-2 weeks. In data set [1] (in humans, single intravenous dose of 4-MU), the “fraction of a single intravenous dose eliminated as the 4-MUG metabolite in urine” value was 93%. Moreover, in data set [1] (in humans), the half-life was 28 min and the “share of 4-MU metabolism accounted for by glucuronidation into 4-MUG” value is listed as “over 90%”. Besides, in data set [1] (species not given), the “fraction of a given dose excreted unchanged in the urine” value is less than 1% and the systemic oral bioavailability is given as less than 3%. Besides, in the data set on DORmO mice, the “HA accumulation in DORmO pancreatic islets (HA staining)” value is reported as “decrease of HA accumulation” and the “onset / progression of T1D as measured by blood glucose over time” value is “sufficient to stop diabetes progression”. Besides, the “insulin positive cells in pancreatic islets” value in the data set on DORmO mice (DORmO mice) is reported as “insulin positive cells were preserved”. The “Foxp3 regulatory T-cells in pancreatic islets (FoxP3 staining)” value in the data set on DORmO mice (non-diabetic treated DORmO mice) was “increase of Foxp3 regulatory T-cells”.
